In one test the target is BTK (Homo sapiens, UniProt Q06187). The experiment in a line: Degradation of BTK protein in Namalwa cells (Western blot; DC50, Dmax). As to conditions: for DC50: read-out: DC50 (BTK degradation), concentration giving 50% reduction of BTK expression level, cell line not given; for Dmax: read-out: Dmax (BTK degradation). Background: Immunoblotting shows a protein as a band on a membrane.

In the next test the test system is JeKo-1 cells. The experiment in a line: Antiproliferative effect, MTS cell viability assay, JeKo-1 cells. As to conditions: Homo sapiens; JeKo-1 mantle cell lymphoma cells; read-out: IC50 (anti-proliferation) JeKO-1 cells. It is filed as cell-based. The method in brief: (§1)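 Mino and JeKo-1 mantle B-cell lymphoma lines were exposed to compound at 0, 0.001, 0.01, 0.1, 1 and 10 μM for 72 h. Viability was read by MTS reduction to formazan, measured as absorbance at 490 nm.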

A further test relates to Mino cells. The experiment in a line: Antiproliferative effect, MTS cell viability assay, Mino cells. It is filed as cell-based. Particulars: Homo sapiens, MINO, Mino mantle cell lymphoma cells; read-out: IC50 (anti-proliferation) Mino cells. The method in brief:
as §1
On the technique in general: Tetrazolium dyes change colour on reduction, which living cells bring about.

The DC50 is the concentration at which degradation of the target reaches its halfway point. Usually Dmax stands for the greatest extent of degradation seen.

Chain of BTK (Q06187 whole entry): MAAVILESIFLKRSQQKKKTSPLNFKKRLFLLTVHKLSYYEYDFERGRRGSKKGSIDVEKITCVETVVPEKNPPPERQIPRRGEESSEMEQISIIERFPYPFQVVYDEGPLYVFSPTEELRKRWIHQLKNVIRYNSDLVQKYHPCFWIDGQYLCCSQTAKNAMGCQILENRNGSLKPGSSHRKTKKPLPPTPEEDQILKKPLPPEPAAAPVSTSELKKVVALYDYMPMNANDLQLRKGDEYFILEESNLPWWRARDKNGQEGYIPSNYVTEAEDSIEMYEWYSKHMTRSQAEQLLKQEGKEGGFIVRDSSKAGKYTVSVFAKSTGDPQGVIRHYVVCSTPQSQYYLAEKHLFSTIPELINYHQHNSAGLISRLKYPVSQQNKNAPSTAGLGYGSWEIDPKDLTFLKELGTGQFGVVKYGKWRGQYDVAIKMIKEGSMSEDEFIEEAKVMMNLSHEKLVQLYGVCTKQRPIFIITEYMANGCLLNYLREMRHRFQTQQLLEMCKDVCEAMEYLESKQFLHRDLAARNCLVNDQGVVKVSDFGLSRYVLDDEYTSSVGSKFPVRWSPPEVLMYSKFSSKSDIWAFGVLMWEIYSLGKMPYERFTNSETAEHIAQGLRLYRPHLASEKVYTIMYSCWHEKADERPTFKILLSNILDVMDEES

Turning to `Nc1ncnc2c1c(-c1ccc(Oc3ccccc3)cc1)nn2C1CCC(CN2CC(N3CCN(c4ccc5c(c4)C(=O)N(C4CCC(=O)NC4=O)C5=O)CC3)C2)CC1` (centres unmarked) [Compound 532, 5-(4-(1-((4-(4-amino-3-(4-phenoxyphenyl)-1H-pyrazolo[3,4-d]pyrimidin-1-yl)cyclohexyl)methyl)azetidin-3-yl)piperazin-1-yl)-2-(2,6-dioxopiperidin-3-yl)isoindoline-1,3-dione], on BTK, the DC50 is less than 0.01 µM and the Dmax was more than 90%. Besides, the IC50 in the test with JeKo-1 cells was less than 1 µM. The IC50 with Mino cells was less than 1 µM.
For the compound `Nc1ncnc2c1c(-c1ccc(Oc3ccccc3)cc1)nn2C1CCC(CN2CC(N3CCN(c4ccc5c(c4)CN(C4CCC(=O)NC4=O)C5=O)CC3)C2)CC1` (centres unmarked) [Compound 533, 3-(5-(4-(1-((4-(4-amino-3-(4-phenoxyphenyl)-1H-pyrazolo[3,4-d]pyrimidin-1-yl)cyclohexyl)methyl)azetidin-3-yl)piperazin-1-yl)-1-oxoisoindolin-2-yl)piperidine-2,6-dione], at BTK, the DC50 is less than 0.01 µM and the maximal degradation (Dmax) was more than 90%. For the same compound, in the test with JeKo-1 cells, the IC50 is less than 1 µM. Moreover, the IC50 in the test on Mino cells was less than 1 µM.
`Nc1ncnc2c1c(-c1ccc(Oc3ccccc3)cc1)nn2C1CCN(C2CCN(CCCC#Cc3ccc(N4CCC(=O)NC4=O)cc3)CC2)CC1` [Compound 534, 1-(4-(5-(4-(4-amino-3-(4-phenoxyphenyl)-1H-pyrazolo[3,4-d]pyrimidin-1-yl)-[1,4′-bipiperidin]-1′-yl)pent-1-yn-1-yl)phenyl)dihydropyrimidine-2,4(1H,3H)-dione]: on BTK, the 50% degradation concentration (DC50) was more than 0.05 µM and the Dmax is more than 50%. Moreover, the IC50 in the test with JeKo-1 cells was more than 10 µM. In addition, in the test on Mino cells, the IC50 is more than 10 µM.
`Nc1ncnc2c1c(-c1ccc(Oc3ccccc3)cc1)nn2C1CCN(C2CCN(CCCCC#Cc3ccc(N4CCC(=O)NC4=O)cc3)CC2)CC1` [Compound 535, 1-(4-(6-(4-(4-amino-3-(4-phenoxyphenyl)-1H-pyrazolo[3,4-d]pyrimidin-1-yl)-[1,4′-bipiperidin]-1′-yl)hex-1-yn-1-yl)phenyl)dihydropyrimidine-2,4(1H,3H)-dione]: on BTK, the half-maximal degradation concentration (DC50) was more than 0.05 µM and the Dmax was more than 50%. In the test with JeKo-1 cells, the IC50 was more than 10 µM. The IC50 in the test with Mino cells was more than 10 µM.
With `Nc1ncnc2c1c(-c1ccc(Oc3ccccc3)cc1)nn2C1CCN(C2CCN(CCCCC#Cc3ccc(N4CCC(=O)NC4=O)cc3)C2)CC1` (centres unmarked) [Compound 536, 1-(4-(6-(3-(4-(4-amino-3-(4-phenoxyphenyl)-1H-pyrazolo[3,4-d]pyrimidin-1-yl)piperidin-1-yl)pyrrolidin-1-yl)hex-1-yn-1-yl)phenyl)dihydropyrimidine-2,4(1H,3H)-dione], on BTK, the DC50 is more than 0.05 µM and the greatest degradation seen (Dmax) is more than 50%. Besides, the IC50 with JeKo-1 cells was more than 10 µM. For the same compound, the IC50 with Mino cells was more than 10 µM.
As to `Nc1ncnc2c1c(-c1ccc(Oc3ccccc3)cc1)nn2C1CCN(C2CCN(CCCC#Cc3ccc(N4CCC(=O)NC4=O)cc3)C2)CC1` (centres unmarked) [Compound 537, 1-(4-(5-(3-(4-(4-amino-3-(4-phenoxyphenyl)-1H-pyrazolo[3,4-d]pyrimidin-1-yl)piperidin-1-yl)pyrrolidin-1-yl)pent-1-yn-1-yl)phenyl)dihydropyrimidine-2,4(1H,3H)-dione], at BTK, the DC50 was more than 0.05 µM. For the same compound, the greatest degradation seen (Dmax) at BTK was more than 50%. Further, the IC50 in the test on JeKo-1 cells and with Mino cells was more than 10 µM in each case.
For the compound `Nc1ncnc2c1c(-c1ccc(Oc3ccccc3)cc1)nn2C1CCN(CCCC#Cc2ccc(N3CCC(=O)NC3=O)cc2)CC1` [Compound 538, 1-(4-(5-(4-(4-amino-3-(4-phenoxyphenyl)-1H-pyrazolo[3,4-d]pyrimidin-1-yl)piperidin-1-yl)pent-1-yn-1-yl)phenyl)dihydropyrimidine-2,4(1H,3H)-dione], at BTK, the DC50 is more than 0.05 µM and the Dmax was more than 50%. In the test with JeKo-1 cells, the IC50 is more than 10 µM. In addition, the IC50 in the test on Mino cells was more than 10 µM.
In the case of `Nc1ncnc2c1c(-c1ccc(Oc3ccccc3)cc1)nn2C1CCN(CCCCC#Cc2ccc(N3CCC(=O)NC3=O)cc2)CC1` [Compound 539, 1-(4-(6-(4-(4-amino-3-(4-phenoxyphenyl)-1H-pyrazolo[3,4-d]pyrimidin-1-yl)piperidin-1-yl)hex-1-yn-1-yl)phenyl)dihydropyrimidine-2,4(1H,3H)-dione], at BTK, the DC50 was more than 0.05 µM and the Dmax was more than 50%. The IC50 with JeKo-1 cells is more than 10 µM. In addition, the IC50 in the test with Mino cells was more than 10 µM.
Consider `Nc1ncnc2c1c(-c1ccc(Oc3ccccc3)cc1)nn2C1CCN(CCC#Cc2ccc(N3CCC(=O)NC3=O)cc2)CC1` [Compound 540, 1-(4-(4-(4-(4-amino-3-(4-phenoxyphenyl)-1H-pyrazolo[3,4-d]pyrimidin-1-yl)piperidin-1-yl)but-1-yn-1-yl)phenyl)dihydropyrimidine-2,4(1H,3H)-dione], for which the DC50 at BTK was more than 0.05 µM. The Dmax on BTK is more than 50%. For the same compound, the IC50 in the test on JeKo-1 cells and in the test with Mino cells was more than 10 µM in each case.
Take `Nc1ncnc2c1c(-c1ccc(Oc3ccccc3)cc1)nn2C1CCN(CC2CCN(CC3CCN(c4ccc5c(c4)oc(=O)n5C4CCC(=O)NC4=O)CC3)C2)CC1` (centres unmarked) [Compound 541, 3-(6-(4-((3-((4-(4-amino-3-(4-phenoxyphenyl)-1H-pyrazolo[3,4-d]pyrimidin-1-yl)piperidin-1-yl)methyl)pyrrolidin-1-yl)methyl)piperidin-1-yl)-2-oxobenzo[d]oxazol-3(2H)-yl)piperidine-2,6-dione]: on BTK, the DC50 was 0.01 to 0.05 µM and the maximal degradation (Dmax) was more than 75%. The IC50 in the test with JeKo-1 cells was 1 to 10 µM. Also, in the test on Mino cells, the IC50 fell in the range of 1 to 10 µM.
Take `Nc1ncnc2c1c(-c1ccc(Oc3ccccc3)cc1)nn2C1CCN(CCN2CCC(CN3CCC(c4ccc5c(c4)oc(=O)n5C4CCC(=O)NC4=O)CC3)C2)CC1` (centres unmarked) [Compound 542, 3-(6-(1-((1-(2-(4-(4-amino-3-(4-phenoxyphenyl)-1H-pyrazolo[3,4-d]pyrimidin-1-yl)piperidin-1-yl)ethyl)pyrrolidin-3-yl)methyl)piperidin-4-yl)-2-oxobenzo[d]oxazol-3(2H)-yl)piperidine-2,6-dione]: at BTK, the half-maximal degradation concentration (DC50) lay within 0.01 to 0.05 µM and the maximal degradation (Dmax) is more than 75%. For the same compound, the IC50 in the test with JeKo-1 cells lay in the range of 1 to 10 µM. Besides, in the test with Mino cells, the IC50 was 1 to 10 µM.
Turning to `Nc1ncnc2c1c(-c1ccc(Oc3ccccc3)cc1)nn2C1CCN(CCCN2CCC(CN3CCC(c4ccc5c(c4)oc(=O)n5C4CCC(=O)NC4=O)CC3)C2)CC1` (centres unmarked) [Compound 543, 3-(6-(1-((1-(3-(4-(4-amino-3-(4-phenoxyphenyl)-1H-pyrazolo[3,4-d]pyrimidin-1-yl)piperidin-1-yl)propyl)pyrrolidin-3-yl)methyl)piperidin-4-yl)-2-oxobenzo[d]oxazol-3(2H)-yl)piperidine-2,6-dione], on BTK, the DC50 is 0.01 to 0.05 µM and the Dmax is more than 75%. The IC50 in the test with JeKo-1 cells was 1 to 10 µM. In addition, the IC50 in the test with Mino cells fell in the range of 1 to 10 µM.
As to `Nc1ncnc2c1c(-c1ccc(Oc3ccccc3)cc1)nn2C1CCN(CC2CCN(CC3CCN(c4ccc5c(c4)oc(=O)n5C4CCC(=O)NC4=O)CC3)CC2)CC1` (centres unmarked) [Compound 544, 3-(6-(4-((4-((4-(4-amino-3-(4-phenoxyphenyl)-1H-pyrazolo[3,4-d]pyrimidin-1-yl)piperidin-1-yl)methyl)piperidin-1-yl)methyl)piperidin-1-yl)-2-oxobenzo[d]oxazol-3(2H)-yl)piperidine-2,6-dione], at BTK, the 50% degradation concentration (DC50) was 0.01 to 0.05 µM. On BTK, the Dmax was more than 90%. For the same compound, the IC50 with JeKo-1 cells and with Mino cells was 1 to 10 µM throughout.
As to `Nc1ncnc2c1c(-c1ccc(Oc3ccccc3)cc1)nn2C1CCN(CCN2CCC(CN3CCC(c4ccc5c(c4)oc(=O)n5C4CCC(=O)NC4=O)CC3)CC2)CC1` (centres unmarked) [Compound 545, 3-(6-(1-((1-(2-(4-(4-amino-3-(4-phenoxyphenyl)-1H-pyrazolo[3,4-d]pyrimidin-1-yl)piperidin-1-yl)ethyl)piperidin-4-yl)methyl)piperidin-4-yl)-2-oxobenzo[d]oxazol-3(2H)-yl)piperidine-2,6-dione], on BTK, the DC50 was in the range of 0.01 to 0.05 µM and the Dmax was more than 90%. The IC50 in the test on JeKo-1 cells lay in the range of 1 to 10 µM. Moreover, in the test on Mino cells, the IC50 was less than 1 µM.
Taken in the same sequence, the figures for `Nc1ncnc2c1c(-c1ccc(Oc3ccccc3)cc1)nn2C1CCN(CCCN2CCC(CN3CCC(c4ccc5c(c4)oc(=O)n5C4CCC(=O)NC4=O)CC3)CC2)CC1` (centres unmarked) [Compound 546, 3-(6-(1-((1-(3-(4-(4-amino-3-(4-phenoxyphenyl)-1H-pyrazolo[3,4-d]pyrimidin-1-yl)piperidin-1-yl)propyl)piperidin-4-yl)methyl)piperidin-4-yl)-2-oxobenzo[d]oxazol-3(2H)-yl)piperidine-2,6-dione] were less than 0.01 µM, more than 90%, less than 1 µM and 1 to 10 µM.
Turning to `Nc1ncnc2c1c(-c1ccc(Oc3ccccc3)cc1)nn2C1CCN(CC2CCN(CC3CCN(c4ccc(N5CCC(=O)NC5=O)cc4)CC3)C2)CC1` (centres unmarked) [Compound 547, 1-(4-(4-((3-((4-(4-amino-3-(4-phenoxyphenyl)-1H-pyrazolo[3,4-d]pyrimidin-1-yl)piperidin-1-yl)methyl)pyrrolidin-1-yl)methyl)piperidin-1-yl)phenyl)dihydropyrimidine-2,4(1H,3H)-dione], on BTK, the DC50 was less than 0.01 µM. Further, the Dmax at BTK was more than 90%. The IC50 in the test with JeKo-1 cells and with Mino cells was 1 to 10 µM in each case.
Take `Nc1ncnc2c1c(-c1ccc(Oc3ccccc3)cc1)nn2C1CCN(CCN2CCC(CN3CCC(c4ccc(N5CCC(=O)NC5=O)cc4)CC3)C2)CC1` (centres unmarked) [Compound 548, 1-(4-(1-((1-(2-(4-(4-amino-3-(4-phenoxyphenyl)-1H-pyrazolo[3,4-d]pyrimidin-1-yl)piperidin-1-yl)ethyl)pyrrolidin-3-yl)methyl)piperidin-4-yl)phenyl)dihydropyrimidine-2,4(1H,3H)-dione]: on BTK, the half-maximal degradation concentration (DC50) was less than 0.01 µM and the maximal degradation (Dmax) was more than 75%. Besides, the IC50 with JeKo-1 cells is less than 1 µM. Further, the IC50 with Mino cells is less than 1 µM.

These data come from patent US12139492B2 (Endotarget Inc., priority 2021, dated 2024).
